Laboratory results published in patent US20160145247A1, “Aminomethyl-Biaryl Derivatives Complement Factor D inhibitors and uses thereof” (NOVARTIS AG, priority 2013, published 2016).

Target: T1, factor D (Homo sapiens, UniProt P00746)
T1 construct: made in house; host or cells: E. coli
Test: factor D inhibition assay of Biological Example 2
Type: biochemical

T1 sequence (P00746 26-253): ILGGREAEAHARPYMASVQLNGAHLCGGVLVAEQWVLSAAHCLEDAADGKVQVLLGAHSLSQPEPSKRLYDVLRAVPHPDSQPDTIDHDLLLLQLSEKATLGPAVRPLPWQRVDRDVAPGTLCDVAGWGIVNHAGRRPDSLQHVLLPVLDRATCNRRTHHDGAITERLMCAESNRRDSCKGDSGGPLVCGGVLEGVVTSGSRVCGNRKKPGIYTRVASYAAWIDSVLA

Structure (SMILES) | IC50
C[C@@H](N)c1cccc(-c2cc(COc3ccccc3CC(=O)O)cc(OCC3CCCN3)c2)c1F (stereo partly drawn) [Example 266, 2-(2-((3′-((R)-1-aminoethyl)-2′-fluoro-5-(pyrrolidin-2-ylmethoxy)-[1,1′-biphenyl]-3-yl)methoxy)phenyl)acetic acid] | 0.034 µM
CC(O)c1cc(COc2ccccc2CC(=O)O)cc(-c2cccc(CN)c2)c1 (racemic) [Example 106, (±)-2-(2-((3′-(Aminomethyl)-5-(1-hydroxyethyl)-[1,1′-biphenyl]-3-yl)methoxy)phenyl)acetic acid] | 0.005 µM
C[C@@H](N)c1cccc(-c2cc(CCc3ccncc3)cc(COc3ccccc3CC(=O)O)c2)c1F [Example 216-P] | 0.013 µM
C[C@@H](N)c1cccc(-c2cc(COc3ccccc3CC(=O)O)cc(OCC3(C)CC3)c2)c1 [Example 261, (R)-2-(2-((3′-(1-aminoethyl)-5-((1-methylcyclopropyl)methoxy)-[1,1′-biphenyl]-3-yl)methoxy)phenyl)acetic acid] | 0.024 µM
COCc1cc(COc2ccccc2CC(=O)O)cc(-c2cccc(C(N)CF)c2F)c1 (racemic) [Example 205-B, (±)-2-(2-((3′-(1-Amino-2-fluoroethyl)-2′-fluoro-5-(methoxymethyl)-[1,1′-biphenyl]-3-yl)methoxy)phenyl)acetic acid] | 0.01 µM
C[C@@H](N)c1cccc(-c2cc(CCC3CNCCO3)cc(COc3ccccc3CC(=O)O)c2)c1F (stereo partly drawn) [Example 239-C, 2-(2-((3′-((R)-1-aminoethyl)-2′-fluoro-5-(2-(morpholin-2-yl)ethyl)-[1,1′-biphenyl]-3-yl)methoxy)phenyl)acetic acid] | 0.013 µM
N[C@H](C(=O)O)c1cccc(-c2cccc(COc3ccccc3CC(=O)O)c2)c1 [Example 193, (S)-2-Amino-2-(3′-((2-(carboxymethyl)phenoxy)methyl)-[1,1′-biphenyl]-3-yl)acetic acid] | 0.048 µM
CC(=O)Nc1cc(C(=O)Nc2ccccc2CC(=O)O)cc(-c2cccc(CN)c2)c1 [Example 5, 2-(2-(5-Acetamido-3′-(aminomethyl)-[1,1′-biphenyl]-3-ylcarboxamido)phenyl)acetic acid] | 0.045 µM
C[C@@H](N)c1cccc(-c2cc(NCC(F)F)cc(N(C)Cc3ccccc3CC(=O)O)c2)c1F [Example 216-AC] | 0.033 µM
N[C@H](CO)c1cccc(-c2cccc(COc3ccccc3CC(=O)O)c2F)c1 [Example 123, (S)-2-(2-((3′-(1-Amino-2-hydroxyethyl)-2-fluoro-[1,1′-biphenyl]-3-yl)methoxy)phenyl)acetic acid] | 0.312 µM
COCCNc1cc(C(=O)Nc2ccccc2CC(=O)O)cc(-c2cccc([C@H](N)CO)c2)c1 [Example 83-D, (S)-2-(2-(3′-(1-amino-2-hydroxyethyl)-5-((2-methoxyethyl)amino)-[1,1′-biphenyl]-3-ylcarboxamido)phenyl)acetic acid] | 0.022 µM
CCC[C@@H](N)c1cccc(-c2cccc(COc3ccccc3CC(=O)O)c2)n1 [Example 196-A] | 11.3 µM
C[C@@H](N)c1cccc(-c2cc(COc3ccccc3CC(=O)O)cc(OCCF)c2)c1F [Example 214-C] | 0.008 µM
Cc1cc(Nc2cc(C(=O)Nc3ccccc3CC(=O)O)cc(-c3cc(F)cc(CN)c3)c2)n(C)n1 [Example 79-I] | 0.019 µM
N[C@H](CO)c1cccc(-c2cc(CCCF)cc(COc3ccccc3CC(=O)O)c2)c1 [Example 272, (S)-2-(2-((3′-(1-amino-2-hydroxyethyl)-5-(3-fluoropropyl)-[1,1′-biphenyl]-3-yl)methoxy)phenyl)acetic acid] | 0.01 µM
C[C@@H](N)c1cccc(-c2ccc(Cl)c(COc3ccccc3CC(=O)O)c2)c1F [Example 275, (R)-2-(2-((3′-(1-aminoethyl)-4-chloro-2′-fluoro-[1,1′-biphenyl]-3-yl)methoxy)phenyl)acetic acid] | 0.013 µM
N[C@H](CO)c1cccc(-c2cc(COc3ccccc3CC(=O)O)cc(OCC(F)(F)F)c2)c1 [Example 115-C] | 0.005 µM
NCc1cccc(-c2cc(COc3ccccc3CC(=O)O)cc3c2OCO3)c1 [Example 126-B, 2-(2-((7-(3-(Aminomethyl)phenyl)benzo[d][1,3]dioxol-5-yl)methoxy)phenyl)acetic acid] | 0.003 µM
CCNc1ccc(CC(=O)O)c(OCc2cccc(-c3cccc(CN)c3)c2)c1 [Example 294-E] | 0.49 µM
NCc1cccc(-c2cc(COc3ccccc3CC(=O)O)cc(NC[C@@H]3CCCO3)c2)c1 [Example 140, (S)-2-(2-((3′-(Aminomethyl)-5-(((tetrahydrofuran-2-yl)methyl)amino)-[1,1′-biphenyl]-3-yl)methoxy)phenyl)acetic acid] | 0.003 µM
COC(C)c1cc(COc2ccccc2CC(=O)O)cc(-c2cccc([C@H](N)CF)c2)c1 (mixture of isomers) [Example 121-C, 2-(2-((3′-((S)-1-Amino-2-fluoroethyl)-5-(1-methoxyethyl)-[1,1′-biphenyl]-3-yl)methoxy)phenyl)acetic acid] | 0.38 µM
NCc1cc(F)cc(-c2cc(Nc3ccn[nH]3)cc(C(=O)Nc3ccccc3CC(=O)O)c2)c1 [Example 79-G] | 0.022 µM
NCc1cccc(-c2cc(COc3ccccc3CC(=O)O)cc(OCC3CC3)c2)c1 [Example 136, 2-(2-((3′-(Aminomethyl)-5-(cyclopropylmethoxy)-[1,1′-biphenyl]-3-yl)methoxy)phenyl)acetic acid] | 0.005 µM

Structure (SMILES) | IC50
C[C@@H](N)c1cccc(-c2cc(COc3ccccc3CC(=O)O)cc(C3CCCCC3)c2)c1F [Example 243-D, (R)-2-(2-((3′-(1-aminoethyl)-5-cyclohexyl-2′-fluoro-[1,1′-biphenyl]-3-yl)methoxy)phenyl)acetic acid] | 0.013 µM
N[C@H](CO)c1cccc(-c2ccc(OC(F)(F)F)c(COc3ccccc3CC(=O)O)c2)c1 [Example 188, (S)-2-(2-((3′-(1-Amino-2-hydroxyethyl)-4-(trifluoromethoxy)-[1,1′-biphenyl]-3-yl)methoxy)phenyl)acetic acid] | 0.017 µM
NC(CF)c1cccc(-c2cc(COc3ccccc3CC(=O)O)cc(CN3CCOCC3)c2)c1F (single isomer, unassigned) [Example 217-D, (+) or (−)-2-(2-((3′-(1-Amino-2-fluoroethyl)-2′-fluoro-5-(morpholinomethyl)-[1,1′-biphenyl]-3-yl)methoxy)phenyl)acetic acid] | 0.063 µM
C[C@@H](N)c1cccc(-c2cc(COc3ccccc3CC(=O)O)cc(COC3CCOc4ccc(Cl)cc43)c2)c1F (stereo partly shown) [Example 120-S] | 0.021 µM
CCC[C@@H](N)c1cc(-c2cccc(COc3ccccc3CC(=O)O)c2)ccn1 [Example 196-B] | 0.206 µM
C[C@@H](N)c1cccc(-c2cc(COc3ccccc3CC(=O)O)cc(N(C)CCF)c2)c1F [Example 216-L] | 0.024 µM
NC(=O)C(N)c1cccc(-c2cccc(COc3ccccc3CC(=O)O)c2)c1 (racemic) [Example 189, (±)-2-(2-((3′-(1,2-Diamino-2-oxoethyl)-[1,1′-biphenyl]-3-yl)methoxy)phenyl)acetic acid] | 1.11 µM
C[C@@H](N)c1cccc(-c2cc(COc3ccccc3CC(=O)O)cc(C(C)(C)O)c2)c1 [Example 120-H] | 0.01 µM
C[C@@H](N)c1cccc(-c2cc(COc3ccccc3CC(=O)O)cc(N3CCCCC3)c2)c1F [Example 241-C, (R)-2-(2-((3′-(1-Aminoethyl)-2′-fluoro-5-(piperidin-1-yl)-[1,1′-biphenyl]-3-yl)methoxy)phenyl)acetic acid] | 0.04 µM
COc1ccc(C(=O)Nc2ccccc2CC(=O)O)cc1-c1cccc(CN)c1 [Example 8-B, 2-(2-(3′-(Aminomethyl)-6-methoxy-[1,1′-biphenyl]-3-ylcarboxamido)phenyl)acetic acid] | 0.353 µM
N[C@H](CF)c1cccc(-c2cc(COc3ccccc3CC(=O)O)cc(NCC3CC3)c2)c1F [Example 216-A] | 0.007 µM
COCCc1cc(COc2ccccc2CC(=O)O)cc(-c2cccc([C@@H](C)N)c2)c1 [Example 120-W] | 0.013 µM
Cc1c(COc2ccccc2CC(=O)O)cccc1-c1cccc([C@@H](C)N)c1 [Example 116-N] | 52.5 µM
C[C@@H](N)c1cccc(-c2cc(COc3ccccc3CC(=O)O)cc(OCC3(C)COC3)c2)c1 [Example 263, (R)-2-(2-((3′-(1-aminoethyl)-5-((3-methyloxetan-3-yl)methoxy)-[1,1′-biphenyl]-3-yl)methoxy)phenyl)acetic acid] | 0.014 µM
C[C@H](N)c1cccc(-c2cc(COc3ccccc3CC(=O)O)cc(S(C)(=O)=O)c2)c1F [Example 252, (S)-2-(2-((3′-(1-aminoethyl)-2′-fluoro-5-(methylsulfonyl)-[1,1′-biphenyl]-3-yl)methoxy)phenyl)acetic acid] | 1.58 µM
NCc1cccc(-c2ccc(C(F)(F)F)c(COc3ccccc3CC(=O)O)c2)c1 [Example 165, 2-(2-((3′-(Aminomethyl)-4-(trifluoromethyl)-[1,1′-biphenyl]-3-yl)methoxy)phenyl)acetic acid] | 0.021 µM
NCc1cccc(-c2ccnc(C(=O)Nc3ccccc3CC(=O)O)c2)c1 [Example 39, 2-(2-(4-(3-(Aminomethyl)phenyl)picolinamido)phenyl)acetic acid] | 40.5 µM
Cc1ccc(COc2ccccc2CC(=O)O)cc1-c1cccc([C@H](N)CO)c1 [Example 116-K] | 0.108 µM
COc1ccc(CC(=O)O)c(NC(=O)c2cccc(-c3cc(F)cc(CN)c3)n2)c1 [Example 21-Q] | 0.022 µM
CCNc1cc(COc2ccccc2CC(=O)O)cc(-c2cccc([C@@H](C)N)c2F)c1 [Example 151, (R)-2-(2-((3′-(1-aminoethyl)-5-(ethylamino)-2′-fluoro-[1,1′-biphenyl]-3-yl)methoxy)phenyl)acetic acid] | 0.006 µM
NCc1cc(-c2cccc(COc3ccccc3CC(=O)O)c2)ccc1F [Example 138-D] | 0.223 µM
N[C@H](CO)c1cccc(-c2cc(OC[C@@H]3CCCO3)cc(C(=O)Nc3ccccc3CC(=O)O)c2)c1 [Example 81, 2-(2-(3′-((S)-1-Amino-2-hydroxyethyl)-5-(((S)-tetrahydrofuran-2-yl)methoxy)-[1,1′-biphenyl]-3-ylcarboxamido)phenyl)acetic acid] | 0.02 µM
C[C@@H](N)c1cccc(-c2cc(NCC3CC3)c3c(c2)C(Oc2ccccc2CC(=O)O)CCO3)c1F (stereo partly shown) [Example 216-X] | 0.014 µM
